# Experimental data reported in patent US8163929B2, “Dihydropyridone amides as P2X7 modulators” (Roche Palo Alto LLC, priority 2008, dated 2012).
# Biological target: T1, P2X7 (UniProt Q99572)
# T1 sequence (Q99572 1-595): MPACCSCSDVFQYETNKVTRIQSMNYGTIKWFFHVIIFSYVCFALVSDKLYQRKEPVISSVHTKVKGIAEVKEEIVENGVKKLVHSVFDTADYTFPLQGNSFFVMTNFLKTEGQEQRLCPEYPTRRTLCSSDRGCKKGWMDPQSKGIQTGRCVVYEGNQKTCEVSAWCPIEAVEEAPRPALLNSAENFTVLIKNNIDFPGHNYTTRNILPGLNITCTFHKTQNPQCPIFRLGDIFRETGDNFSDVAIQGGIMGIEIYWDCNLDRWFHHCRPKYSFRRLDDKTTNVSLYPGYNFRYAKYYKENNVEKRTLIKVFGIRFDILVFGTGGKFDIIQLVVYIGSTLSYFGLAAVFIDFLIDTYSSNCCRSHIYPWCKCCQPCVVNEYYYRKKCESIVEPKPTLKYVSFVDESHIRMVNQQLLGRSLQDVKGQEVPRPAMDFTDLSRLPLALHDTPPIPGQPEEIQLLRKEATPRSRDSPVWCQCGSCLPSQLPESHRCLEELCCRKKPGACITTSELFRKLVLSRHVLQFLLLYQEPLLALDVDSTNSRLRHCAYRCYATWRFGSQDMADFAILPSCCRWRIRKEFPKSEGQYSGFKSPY
# Experiment: P2X7 activity of Table 1
# Format: cell-based
# Settings: pIC50 values for P2X7
# In short: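 FLIPR calcium flux with fluo-3 in 1321N1 cells expressing human P2X7 and HEK293 cells expressing rat P2X7, in HBSS with 2 mM CaCl2 and 2.5 mM probenecid. Antagonist pre-incubated 20 min at room temperature, then BzATP added (100 μM human, 5 μM rat). Peak response over 5 min normalised to 5 μM ionomycin.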
row,SMILES,pIC50
1,"Cc1ccc(-c2ccc(=O)n(CCO)n2)cc1NC(=O)C1=CN(C)C(=O)C[C@H]1c1ccc(F)cc1 [Compound 134, (S)-4-(4-Fluoro-phenyl)-1-methyl-6-oxo-1,4,5,6-tetrahydro-pyridine-3-carboxylic acid {5-[1-(2-hydroxy-ethyl)-6-oxo-1,6-dihydro-pyridazin-3-yl]-2-methyl-phenyl}-amide]",6.42
2,"Cc1ccc(-c2ncccn2)cc1NC(=O)C1=CNC(=O)C[C@H]1c1cccc(F)c1 [Compound 97, (S)-4-(3-Fluoro-phenyl)-6-oxo-1,4,5,6-tetrahydro-pyridine-3-carboxylic acid (2-methyl-5-pyrimidin-2-yl-phenyl)-amide]",7.09
3,"CN1C=C(C(=O)Nc2cc(-c3ccnn(C)c3=O)ccc2F)[C@H](c2ccc(F)cc2)CC1=O [Compound 141, (S)-4-(4-Fluoro-phenyl)-1-methyl-6-oxo-1,4,5,6-tetrahydro-pyridine-3-carboxylic acid [2-fluoro-5-(2-methyl-3-oxo-2,3-dihydro-pyridazin-4-yl)-phenyl]-amide]",7.36
4,"Cc1ccc(-n2ncc(=O)[nH]c2=O)cc1NC(=O)C1=CN(C)C(=O)C[C@H]1c1ccc(F)cc1 [Compound 107, (S)-4-(4-Fluoro-phenyl)-1-methyl-6-oxo-1,4,5,6-tetrahydro-pyridine-3-carboxylic acid [5-(3,5-dioxo-4,5-dihydro-3H-[1,2,4]triazin-2-yl)-2-methyl-phenyl]-amide]",6.81
5,"Cc1ccc(-n2ncccc2=O)cc1NC(=O)C1=CNC(=O)C[C@H]1c1cccc(F)c1 [Compound 89, (S)-4-(3-Fluoro-phenyl)-6-oxo-1,4,5,6-tetrahydro-pyridine-3-carboxylic acid [2-methyl-5-(6-oxo-6H-pyridazin-1-yl)-phenyl]-amide]",7.53
6,"Cc1ccc(-c2ccn[nH]c2=O)cc1NC(=O)C1=CN(C)C(=O)C[C@H]1c1cccc(F)c1 [Compound 87, (S)-4-(3-Fluoro-phenyl)-1-methyl-6-oxo-1,4,5,6-tetrahydro-pyridine-3-carboxylic acid [2-methyl-5-(3-oxo-2,3-dihydro-pyridazin-4-yl)-phenyl]-amide]",7.884
7,"COC[C@@H](O)Cn1nc(-c2ccc(C)c(NC(=O)C3=CN(C)C(=O)C[C@H]3c3cccc(F)c3)c2)cc1C [Compound 103, (S)-4-(3-Fluoro-phenyl)-1-methyl-6-oxo-1,4,5,6-tetrahydro-pyridine-3-carboxylic acid {5-[1-((S)-2-hydroxy-3-methoxy-propyl)-5-methyl-1H-pyrazol-3-yl]-2-methyl-phenyl}-amide]",7.1
8,"COC[C@H](O)Cn1nc(-c2ccc(C)c(NC(=O)C3=CN(C)C(=O)C[C@H]3c3ccc(F)cc3)c2)ccc1=O [Compound 126, (S)-4-(4-Fluoro-phenyl)-1-methyl-6-oxo-1,4,5,6-tetrahydro-pyridine-3-carboxylic acid {5-[1-((R)-2-hydroxy-3-methoxy-propyl)-6-oxo-1,6-dihydro-pyridazin-3-yl]-2-methyl-phenyl}-amide]",7.615
9,"Cc1ccc(-c2cc(C)n(C[C@H](C)O)n2)cc1NC(=O)C1=CN(C)C(=O)C[C@H]1c1ccc(F)cc1 [Compound 74, (S)-4-(4-Fluoro-phenyl)-1-methyl-6-oxo-1,4,5,6-tetrahydro-pyridine-3-carboxylic acid {5-[1-((S)-2-hydroxy-propyl)-5-methyl-1H-pyrazol-3-yl]-2-methyl-phenyl}-amide]",7.47
10,"CCc1cc(-c2cccc(NC(=O)C3=CNC(=O)C[C@H]3c3ccc(F)cc3)c2)n[nH]1 [Compound 17, (S)-4-(4-Fluoro-phenyl)-6-oxo-1,4,5,6-tetrahydro-pyridine-3-carboxylic acid [3-(5-ethyl-1H-pyrazol-3-yl)-phenyl]-amide]",6.073
11,"Cc1ccc(-c2cc(C)n(CCO)n2)cc1NC(=O)C1=CN(C)C(=O)C[C@H]1c1cccc(F)c1 [Compound 70, (S)-4-(3-Fluoro-phenyl)-1-methyl-6-ox-1,4,5,6-tetrahydro-pyridine-3-carboxylic acid {5-[1-(2-hydroxy-ethyl)-5-methyl-1H-pyrazol-3-yl]-2-methyl-phenyl}-amide]",7.72
12,"COCCn1c(C)nnc1-c1ccc(C)c(NC(=O)C2=CNC(=O)C[C@H]2c2ccc(F)cc2)c1 [Compound 48, (S)-4-(4-Fluoro-phenyl)-6-oxo-1,4,5,6-tetrahydro-pyridine-3-carboxylic acid {5-[4-(2-methoxy-ethyl)-5-methyl-4H-[1,2,4]triazol-3-yl]-2-methyl-phenyl}-amide]",5.86
13,"COC[C@H](O)Cn1nccc(-c2ccc(C)c(NC(=O)C3=CNC(=O)C[C@H]3c3ccc(F)cc3)c2)c1=O [Compound 106, (S)-4-(4-Fluoro-phenyl)-6-oxo-1,4,5,6-tetrahydro-pyridine-3-carboxylic acid {5-[2-((R)-2-hydroxy-3-methoxy-propyl)-3-oxo-2,3-dihydro-pyridazin-4-yl]-2-methyl-phenyl}-amide]",7.885
14,"Cc1cc(Cl)c(CN2CCOC2=O)cc1NC(=O)C1=CNC(=O)C[C@H]1c1ccc(F)cc1 [Compound 35, (S)-4-(4-Fluoro-phenyl)-6-oxo-1,4,5,6-tetrahydro-pyridine-3-carboxylic acid [4-chloro-2-methyl-5-(2-oxo-oxazolidin-3-ylmethyl)-phenyl]-amide]",8.135
15,"Cc1cc(Cl)c(-c2ccnn(C)c2=O)cc1NC(=O)C1=CNC(=O)C[C@H]1c1ccc(F)cc1 [Compound 127, (S)-4-(4-Fluoro-phenyl)-6-oxo-1,4,5,6-tetrahydro-pyridine-3-carboxylic acid [4-chloro-2-methyl-5-(2-methyl-3-oxo-2,3-dihydro-pyridazin-4-yl)-phenyl]-amide]",7.843
16,"Cc1ccc(-n2ncc(=O)n(CCO)c2=O)cc1NC(=O)C1=CN(C)C(=O)C[C@H]1c1cccc(F)c1 [Compound 101, (S)-4-(3-Fluoro-phenyl)-1-methyl-6-oxo-1,4,5,6-tetrahydro-pyridine-3-carboxylic acid {5-[4-(2-hydroxy-ethyl)-3,5-dioxo-4,5-dihydro-3H-[1,2,4]triazin-2-yl]-2-methyl-phenyl}-amide]",7.57
17,"Cc1ccc(-c2cc(C)n(CC(=O)O)n2)cc1NC(=O)C1=CNC(=O)C[C@H]1c1ccc(F)cc1 [Compound 83, [3-(3-{[(S)-4-(4-Fluoro-phenyl)-6-oxo-1,4,5,6-tetrahydro-pyridine-3-carbonyl]-amino}-4-methyl-phenyl)-5-methyl-pyrazol-1-yl]-acetic acid]",6.335

# Further lines, results first:
row,pIC50,SMILES
1,8.26,"Cc1ccc(=O)n(-c2ccc(C)c(NC(=O)C3=CNC(=O)C[C@H]3c3ccc(F)cc3)c2)c1 [Compound 122, (S)-4-(4-Fluoro-phenyl)-6-oxo-1,4,5,6-tetrahydro-pyridine-3-carboxylic acid [2-methyl-5-(5-methyl-2-oxo-2H-pyridin-1-yl)-phenyl]-amide]"
2,7.763,"Cc1ccc(-n2cccn2)cc1NC(=O)C1=CNC(=O)C[C@H]1c1ccc(F)cc1 [Compound 11, (S)-4-(4-Fluoro-phenyl)-6-oxo-1,4,5,6-tetrahydro-pyridine-3-carboxylic acid (2-methyl-5-pyrazol-1-yl-phenyl)-amide]"
3,7.745,"Cc1ccc(-c2cc[nH]n2)cc1NC(=O)C1=CNC(=O)C[C@H]1c1ccc(F)cc1 [Compound 5, (S)-4-(4-Fluoro-phenyl)-6-oxo-1,4,5,6-tetrahydro-pyridine-3-carboxylic acid [2-methyl-5-(1H-pyrazol-3-yl)-phenyl]-amide]"
4,6.275,"Cc1nnc(-c2ccc(C)c(NC(=O)C3=CNC(=O)C[C@H]3c3ccc(F)cc3)c2)o1 [Compound 30, (S)-4-(4-Fluoro-phenyl)-6-oxo-1,4,5,6-tetrahydro-pyridine-3-carboxylic acid [2-methyl-5-(5-methyl-[1,3,4]oxadiazol-2-yl)-phenyl]-amide]"
5,5.55,"Cc1ccc(-n2cnnc2)cc1NC(=O)C1=CNC(=O)C[C@H]1c1ccc(F)cc1 [Compound 66, (S)-4-(4-Fluoro-phenyl)-6-oxo-1,4,5,6-tetrahydro-pyridine-3-carboxylic acid (2-methyl-5-[1,2,4]triazol-4-yl-phenyl)-amide]"
6,7.655,"Cc1cnn(-c2ccc(C)c(NC(=O)C3=CNC(=O)C[C@H]3c3ccc(F)cc3)c2)c(=O)c1 [Compound 135, (S)-4-(4-Fluoro-phenyl)-6-oxo-1,4,5,6-tetrahydro-pyridine-3-carboxylic acid [2-methyl-5-(4-methyl-6-oxo-6H-pyridazin-1-yl)-phenyl]-amide]"
7,6.653,"Cc1ccc(-c2ccc(C)c(NC(=O)C3=CNC(=O)C[C@H]3c3ccc(F)cc3)c2)cn1 [Compound 10, (S)-4-(4-Fluoro-phenyl)-6-oxo-1,4,5,6-tetrahydro-pyridine-3-carboxylic acid [2-methyl-5-(6-methyl-pyridin-3-yl)-phenyl]-amide]"
8,7.76,"Cc1ccc(-n2ncc(=O)n(CCO)c2=O)cc1NC(=O)C1=CNC(=O)C[C@H]1c1ccc(F)cc1 [Compound 39, (S)-4-(4-Fluoro-phenyl)-6-oxo-1,4,5,6-tetrahydro-pyridine-3-carboxylic acid {5-[4-(2-hydroxy-ethyl)-3,5-dioxo-4,5-dihydro-3H-[1,2,4]triazin-2-yl]-2-methyl-phenyl}-amide]"
